In US7741348B2, “Bisheterocycle tandem compounds useful as antiviral agents, the uses thereof and the compositions comprising such compounds” (Shanghai Institute of Materia Medica, Chinese Academy of …, priority 2005, dated 2010):
≈ marks a conversion by molar mass, not a printed value. Like-named read-outs stand apart in the source and are kept apart here.

Key:
Assay type in all cases: cell-based
[1] = Cytotoxicity to HepG2.2.15 cells (MTT method); details: human, HepG2.2.15 cells (HBV-transgenic human hepatoma cells), 50% death concentration, eighth day
From the text: (§1) Hepatitis B virus (HBV) transgenic human hepatoma carcinoma cell, HepG2.2.15 cell line, can secrete hepatitis B virus particles (containing antigen and DNA) into supernatant when being cultured.
(§2) Under action of antiviral drugs, the contents of HBsAg, HBeAg and viral DNA secreted from cells into the supernatant were detected and are compared with the contents of control groups without drugs, so that the antiviral activity of the compounds of the present invention can be measured as well as the cytotoxic effect of compounds of the present invention. The value concentration of the compounds of the present invention which caused 50% of cells dead and was measured with MTT method was CC50; and the value concentration of the compounds of the present invention which inhibited the secretion of HBsAg and HBeAg detected by ELISA method and inhibited 50% of viral DNA replication detected by fluorescent quantification PCR method was IC50.
(§3) HepG2.2.15 cells were inoculated on a 96-well plate, and the compounds of the present invention were added next day. The medium and the compound solutions of the same concentration were renewed periodically. The culture supernatants were collected on the eighth day to be detected. MTT was added to the cells on the 96-well plate, and MTT dissolving liquid was added after 4 hours to be reacted overnight. OD570 was measured next day on microplate reader. And the cytotoxicity of the compounds of the present invention to the HepG2.2.15 cells, the effect of the compounds of the present invention on the growth of the cells, and the concentration of the compound of the present invention (CC50) causing 50% of the cells dead were estimated according to the OD values.

influenza A virus = assay: Anti influenza A virus activity, cytopathic effect (CPE) in MDCK cells
From the text: (§4) 4. Screening of the samples for the anti-influenza virus A and B activity: MDCK (canine kidney) cells were used as the virus host to test the inhibition effect of the compounds of the present invention on the cytopathic effect (CPE) of the cells caused by the virus.

[2] = tested on: MDCK (canine kidney) cells; assay: 50% toxicity concentration in the anti-influenza screen (MDCK cells); details: 50% toxity concentration, Table 3-2 (influenza screen, MDCK cells)
From the text: as §4

hepatitis B virus (HBV) = assay: HBV-DNA replication in HepG2.2.15 culture supernatant (fluorescent quantification PCR); details: for IC50: Hepatitis B virus
From the text: as §1, §2, §3
A suitable amount of culture supernatant was added into a same volume of virus extract solution, and was boiled after mixed uniformly, then centrifuged at 10000 rpm for 5 min under room temperature. A suitable amount of supernatant was collected for PCR amplification. Five HBV-DNA standard samples were used to set a standard curve. According to the obtained viral DNA replication value, the inhibition rates of HBV-DNA replication of the compound of the present invention at different concentrations were calculated, and then the half inhibition rates of the compounds were calculated to obtain IC50. For the samples that can not be calculated for IC50 value, they can be represented by ICX and given the corresponding concentration values.

[3] = HepG2.2.15 supernatant, eighth day, fluorescent quantification PCR, read-out: DNA replication IC50

| SMILES | CC50 [1] [µM] | IC50 (hepatitis B virus (HBV); [3]) [nM] | also measured |
| --- | --- | --- | --- |
| CCOC(=O)c1nc(-c2cc3ccccc3[nH]2)sc1CC(C)C [Compound C328-2] | 21.7 |  |  |
| COC(=O)c1coc([C@H](C)NC(=O)c2nc(-c3csc([C@@H](NC(=O)C4CCCCC4)C(C)C)n3)oc2C)n1 [Wang 543.64-1] |  |  | IC50 (influenza A virus): 57.8 µg/mL (≈ 106 µM); TC50 [2]: 144.34 µg/mL (≈ 266 µM) |
| Cc1oc(-c2csc([C@@H](NC(=O)CC3=CCCC3)C(C)C)n2)nc1C(=O)O [Wang389.47] |  |  | IC50 (influenza A virus): 29 µg/mL (≈ 74.5 µM); TC50 [2]: 480.75 µg/mL (≈ 1230 µM) |
| COC(=O)c1nc(-c2csc([C@@H](NC(=O)C(C)(C)C)C(C)C)n2)oc1C [Yao379.47] |  |  | IC50 (influenza A virus): 97.8 µg/mL (≈ 258 µM); TC50 [2]: 577.35 µg/mL (≈ 1520 µM) |
| CCOC(=O)c1nc(-c2nccs2)[nH]c1C1CCC1 [Compound C277] | > 100 | 3100 |  |
| CCC(=O)N[C@H](c1nc(-c2nc(C(=O)OC)c(C)o2)cs1)C(C)C [Yao 351.42] |  |  | IC50 (influenza A virus): 259 µg/mL (≈ 736 µM); TC50 [2]: 577.35 µg/mL (≈ 1640 µM) |
| CCCCc1oc(-c2ccc(CCC)s2)nc1C(=O)OCC [Compound C321-1] | 80 | 5860 |  |
| CCCCc1oc(-c2nccs2)nc1C(=O)OCC [Compound C280-2] | > 100 |  | DNA replication IC26 (hepatitis B virus (HBV); ICX: concentration with 26% inhibition of HBV-DNA replication, IC50 not calculable): IC26 = 0.41 uM |
| COC(=O)c1nc(-c2csc([C@@H](NC(=O)C3CCCC3)C(C)C)n2)oc1C [Wang391.49-1] |  |  | IC50 (influenza A virus): 0.56 µg/mL (≈ 1.43 µM); TC50 [2]: 250 µg/mL (≈ 639 µM) |
| c1ccc(-c2cnc(-c3cccs3)s2)cc1 [Compound C243] | 84.5 | 410 |  |
| COC(=O)c1coc([C@H](C)NC(=O)c2nc(-c3csc([C@@H](NC(=O)Cc4ccccc4)C(C)C)n3)oc2C)n1 [Wang 551.62] |  |  | IC50 (influenza A virus): 1.18 µg/mL (≈ 2.14 µM); TC50 [2]: 303.69 µg/mL (≈ 551 µM) |
| CCOC(=O)c1nc(-c2nccs2)[nH]c1C1CC1 [Compound C263-1] | > 100 | 3700 |  |
| CNC(=O)c1nc(-c2nccs2)sc1CC(C)C [Compound C281] |  |  | DNA replication IC94 (hepatitis B virus (HBV); ICX: concentration with 94% inhibition of HBV-DNA replication, IC50 not calculable): IC94 = 33 uM |
| CC(C)Cc1sc(-c2nccs2)nc1C(=O)N(C)C [Compound C295-3] |  |  | DNA replication IC12 (hepatitis B virus (HBV); ICX: concentration with 12% inhibition of HBV-DNA replication, IC50 not calculable): IC12 = 1.23 uM |
| CCOC(=O)c1nc(-c2nc(CC)cs2)sc1CC(C)C [Compound C324-2] | > 100 | 140 |  |
| CCOC(=O)c1nc(-c2cc3ccccc3s2)[nH]c1CC(C)C [Compound C328] | > 7.5 | 190 |  |
| CCOC(=O)c1nc(-c2nccs2)oc1C1CCCCC1 [Compound C306] | > 100 | 800 |  |
| CCOC(=O)c1nc(-c2cscn2)sc1CC(C)C [Compound C296-3] | 116 | 140 |  |
| CCCCc1oc(-c2cccs2)nc1C(=O)OCC [Compound C279-2] | 71.8 | 51900 |  |
| CCOC(=O)c1nc(-c2cc3ccccc3s2)sc1CC(C)C [Compound C345] | > 88.1 |  | IC50 (hepatitis B virus (HBV); HepG2.2.15, read-out: DNA replication IC50): 1320 nM |
| CCOC(=O)c1nc(-c2nccs2)oc1CC(C)C [Compound C280-1] | > 100 |  |  |
| CCCCc1sc(-c2cccs2)nc1C(=O)OCC [Compound C295-1] | 50 | 11700 |  |
| CCOC(=O)c1nc(-c2ccc(C)s2)oc1CC(C)C [Compound C293] | 80 | 126000 |  |
| CCOC(=O)c1nc(-c2cccs2)oc1CC(C)C [Compound C279-3] | > 100 |  |  |
| CCOC(=O)c1nc(-c2ccc(C)s2)[nH]c1CC(C)C [Compound C292] | 139 | 4650 |  |
| c1ccc(-c2cnc(-c3cccs3)o2)cc1 [Compound C227] | > 100 | 1400 |  |
| CCCCc1[nH]c(-c2nccs2)nc1C(=O)OCC [Compound C279-1] | 94.7 |  | DNA replication IC40 (hepatitis B virus (HBV); ICX: concentration with 40% inhibition of HBV-DNA replication, IC50 not calculable): IC40 = 12.4 uM |
| CCCc1ccc(-c2nc(C(=O)OCC)c(CC(C)C)s2)s1 [Compound C337] | 60 |  |  |
| CC(C)Cc1sc(-c2nccs2)nc1C(=O)Nc1ccccc1 [Compound C343] |  |  | DNA replication IC19 (hepatitis B virus (HBV); ICX: concentration with 19% inhibition of HBV-DNA replication, IC50 not calculable): IC19 = 1.23 uM |
